In the CheMixHub ionic liquid set:

Assay: xn = mol fraction of the nth substance listed
Conditions: 101 kPa, frequency 2 MHz

O=S(=O)([O-])C(F)(F)F.[Li+] + O=S(=O)([N-]S(=O)(=O)C(F)(F)F)C(F)(F)F.[Li+] + O
electrical conductivity [S/m]
Conditions	273 K	278 K	283 K	288.1 K	293 K	298.1 K
x2 = 0.001799, x1 = 0.0005943	0.413	0.475	0.542	0.615	0.693	0.778
x2 = 0.005377, x1 = 0.001799	0.96	1.114	1.28	1.47	1.67	1.89
x2 = 0.00893, x1 = 0.003054	1.38	1.606	1.86	2.134	2.434	–
x2 = 0.01246, x1 = 0.004127	1.716	2.004	2.323	2.67	3.05	–
x2 = 0.01596, x1 = 0.005377	1.99	2.33	2.704	3.116	3.56	–
x2 = 0.01944, x1 = 0.006623	2.219	2.6	3.017	3.48	3.98	–
x2 = 0.05129, x1 = 0.0177	2.96	3.47	4.041	4.67	5.346	–
x2 = 0.08265, x1 = 0.02921	2.59	3.039	3.538	4.09	4.68	–
x2 = 0.112, x1 = 0.04029	1.98	2.329	2.718	3.147	3.616	–
x2 = 0.1395, x1 = 0.05129	1.422	1.68	1.97	2.29	2.648	–
x2 = 0.1654, x1 = 0.06203	0.985	1.17	1.39	1.625	1.89	–
x2 = 0.1898, x1 = 0.07238	0.666	0.802	0.957	1.133	1.331	–
x2 = 0.2128, x1 = 0.08265	0.443	0.54	0.652	0.782	0.929	–
x2 = 0.2345, x1 = 0.0927	0.291	0.36	0.441	0.535	0.644	–
x2 = 0.2551, x1 = 0.1024	0.189	0.237	0.295	0.364	0.445	–
x2 = 0.2745, x1 = 0.112	0.121	0.155	0.196	0.246	0.305	–
